Some test systems named below: UO-31 renal; HOP-92 NSCLC; RXF 393 renal; RPMI-8226 leukemia; CAKI-1 renal; KM12 colon; IGROV1 ovarian; SK-MEL-2 melanoma; MOLT-4 leukemia.
Assay in all cases: DTP human tumour cell line panel, 48 h

Molecules are shown by their SMILES.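 Method: 48-hour compound exposure of cells in 96-well plates, five concentrations, linear interpolation of endpoints. Abbreviation: GI50, concentration required for 50% inhibition of growth. TGI is the concentration that stops growth completely.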

As for `Cn1c(=O)c2c3oc(=O)cc(O)c3c(=O)n3c4ccccc4n(c1=O)c23`, the TGI in the assay with UO-31 renal was above 100 µM; with HOP-92 NSCLC, 95.9 µM; in the assay with RXF 393 renal, above 100 µM; with RPMI-8226 leukemia, 91.5 µM; with CAKI-1 renal it was above 100 µM; in the assay with KM12 colon, above 100 µM. In addition, the concentration for total growth inhibition (TGI) with IGROV1 ovarian is above 100 µM; in the assay on SK-MEL-2 melanoma, 69 µM; in the assay on MOLT-4 leukemia, above 100 µM.

In the case of `COC(=O)C(CC=O)C(=O)C(=O)Nc1cccc(C(F)(F)F)c1` (stereo not given), the TGI in the assay on UO-31 renal, in the assay with HOP-92 NSCLC, with RXF 393 renal, in the assay on RPMI-8226 leukemia, with CAKI-1 renal and in the assay on KM12 colon was above 100 µM in each case. Moreover, the TGI in the assay on IGROV1 ovarian, in the assay with SK-MEL-2 melanoma and in the assay with MOLT-4 leukemia was above 100 µM each time.

`Oc1cc2cc(-c3ccccc3)[nH]c2c2ccccc12`: the total growth inhibition concentration (TGI) is above 92.6 µM in the assay with UO-31 renal; above 95.6 µM in the assay with HOP-92 NSCLC; above 78.3 µM with RXF 393 renal; 67.6 µM in the assay on RPMI-8226 leukemia; 90.8 µM in the assay on CAKI-1 renal; above 100 µM with KM12 colon. Also, the TGI is above 100 µM with IGROV1 ovarian, 43.5 µM with SK-MEL-2 melanoma and above 82.6 µM with MOLT-4 leukemia.

On to `CC(=O)[CH-]C(=O)c1ccccc1.CC(=O)[CH-]C(=O)c1ccccc1.[O]=[U+2]=[O]`, for which the GI50 in the assay with HOP-92 NSCLC was 39.9 µM; with RXF 393 renal, 34 µM; with RPMI-8226 leukemia it was 40.7 µM; in the assay on CAKI-1 renal, 39.2 µM; with KM12 colon, 3.67 µM; in the assay with IGROV1 ovarian, 55 µM. For the same compound, the GI50 in the assay on SK-MEL-2 melanoma is 37.4 µM; in the assay with MOLT-4 leukemia, 32.3 µM. Moreover, the TGI with HOP-92 NSCLC was above 100 µM; in the assay with RXF 393 renal it was above 100 µM; with RPMI-8226 leukemia, above 100 µM; with CAKI-1 renal, above 100 µM; in the assay on KM12 colon, 9.83 µM; with IGROV1 ovarian it was above 100 µM. Also, the concentration for total growth inhibition (TGI) in the assay with SK-MEL-2 melanoma and with MOLT-4 leukemia was above 100 µM throughout.

With `COc1ccc([Se]c2ccc(OC)cc2OC)c(OC)c1`, the concentration for total growth inhibition (TGI) was 65.8 µM in the assay on UO-31 renal; 16.3 µM in the assay on HOP-92 NSCLC; 59.5 µM in the assay with RXF 393 renal; above 100 µM with RPMI-8226 leukemia; above 100 µM in the assay on CAKI-1 renal; above 100 µM in the assay with KM12 colon. The TGI in the assay with IGROV1 ovarian is 59.9 µM; in the assay with SK-MEL-2 melanoma, 92.2 µM; with MOLT-4 leukemia, above 100 µM.

Consider `O=c1c2ccccc2nc(-c2ccccc2)n1NCC1(O)OCC(O)C(O)C1O` (stereo not given), for which the TGI in the assay on UO-31 renal, in the assay with HOP-92 NSCLC, in the assay on RPMI-8226 leukemia, in the assay with CAKI-1 renal, in the assay on KM12 colon and in the assay with IGROV1 ovarian was above 100 µM each time. Also, the TGI in the assay with SK-MEL-2 melanoma and in the assay on MOLT-4 leukemia was above 100 µM each time.

Turning to `CC(=O)NC1C(OCc2ccccc2)OC(COC(=O)CCCCCCCCCCNC(=O)c2cccc3c(=O)c4ccccc4[nH]c23)C(O)C1OC(C)C(=O)NC(C)C(=O)NC(CCC(N)=O)C(N)=O` (stereo not given), the total growth inhibition concentration (TGI) with UO-31 renal, with RPMI-8226 leukemia, in the assay on CAKI-1 renal, in the assay with KM12 colon, in the assay on IGROV1 ovarian and in the assay with SK-MEL-2 melanoma was above 100 µM throughout. Further, the TGI in the assay on MOLT-4 leukemia is above 100 µM.

As for `CC1OC(=O)N(CCCC=C2SCCCS2)C1=O` (stereo not given), the TGI in the assay with UO-31 renal, with HOP-92 NSCLC, in the assay with RXF 393 renal, with RPMI-8226 leukemia, in the assay with KM12 colon and in the assay with IGROV1 ovarian was above 100 µM throughout. Further, the total growth inhibition concentration (TGI) with SK-MEL-2 melanoma and in the assay on MOLT-4 leukemia was above 100 µM in each case.

Regarding `O=C(CCCCCCCCC(=O)OCC1OC(n2cnc3c(=O)[nH]cnc32)C(O)C1O)OCC1OC(n2cnc3c(=O)[nH]cnc32)C(O)C1O` (stereo not given), the TGI in the assay on UO-31 renal, in the assay on HOP-92 NSCLC, in the assay on RXF 393 renal, in the assay on RPMI-8226 leukemia, in the assay on CAKI-1 renal and in the assay with KM12 colon was above 100 µM in each case. Also, the TGI in the assay with IGROV1 ovarian, in the assay with SK-MEL-2 melanoma and in the assay on MOLT-4 leukemia was above 100 µM in each case.

Consider `Cc1nnc2n1N=C(CC(=O)c1ccc(O)cc1O)CN2N`, for which the concentration for total growth inhibition (TGI) with UO-31 renal, in the assay on RXF 393 renal, in the assay with CAKI-1 renal, with KM12 colon, with IGROV1 ovarian and in the assay with SK-MEL-2 melanoma was above 100 µM each time.

For the compound `COC(=O)/C(C#N)=C1\N=NNN1CCCN1CCOCC1`, the TGI in the assay with UO-31 renal, with HOP-92 NSCLC, in the assay on RXF 393 renal, in the assay with RPMI-8226 leukemia, in the assay on CAKI-1 renal and in the assay on KM12 colon was above 100 µM in each case. Further, the total growth inhibition concentration (TGI) in the assay on IGROV1 ovarian and with MOLT-4 leukemia was above 100 µM each time.

For `S=C(Nc1ccccc1)Nc1[nH]c(=S)sc1-c1nc2ccccc2[nH]1`, the TGI in the assay on UO-31 renal, in the assay on RXF 393 renal, with RPMI-8226 leukemia, with CAKI-1 renal, in the assay on KM12 colon and in the assay on IGROV1 ovarian was above 100 µM in each case. The concentration for total growth inhibition (TGI) in the assay with SK-MEL-2 melanoma and in the assay on MOLT-4 leukemia was above 100 µM in each case.

Turning to `CC(C)c1ccc(/C=C(\NC(=O)c2ccccc2)c2nc3ccccc3[nH]2)cc1`, the total growth inhibition concentration (TGI) in the assay on UO-31 renal was above 100 µM; in the assay with HOP-92 NSCLC it was above 100 µM; with RXF 393 renal, above 100 µM; in the assay on RPMI-8226 leukemia it was 45.2 µM; in the assay on CAKI-1 renal it was above 100 µM; in the assay on KM12 colon, above 100 µM. Further, the results for the TGI with IGROV1 ovarian, with SK-MEL-2 melanoma and in the assay with MOLT-4 leukemia were above 100 µM, 89.3 µM and 69.9 µM, respectively.

As for `CC1=C(C#N)C(N)=C2C(C)=C(C#N)C(N)=C12`, the TGI with UO-31 renal, in the assay on HOP-92 NSCLC, in the assay on RXF 393 renal, with RPMI-8226 leukemia, with CAKI-1 renal and in the assay with KM12 colon was above 100 µM in each case. Besides, the TGI with IGROV1 ovarian and in the assay on MOLT-4 leukemia was above 100 µM throughout.

On to `C/C(=N\NS(=O)(=O)c1ccc(C)cc1)c1ccc[n+]([O-])n1`, for which the total growth inhibition concentration (TGI) with UO-31 renal was above 100 µM; in the assay on HOP-92 NSCLC it was above 100 µM; with RPMI-8226 leukemia it was above 100 µM; in the assay with CAKI-1 renal, 85.3 µM; with KM12 colon it was above 100 µM; in the assay with IGROV1 ovarian, above 100 µM. In the assay on MOLT-4 leukemia, this compound registered a TGI above 100 µM.

A word on the TGI: it is the concentration giving total growth inhibition. A lower TGI goes with greater sensitivity of the cells. As a reminder, the GI50 is the concentration at which growth is held to half of that of the control.

(Values after PubChem BioAssay (NCI).)
